The experiment can be described thus: FRAP activity test and antioxidant evaluation test using rats. It is filed as in vivo, rats of Wistar strain. Particulars: male Wistar rats, oral, 100 mg/kg. As for the experimental part: Male rats of Wistar strain (9 weeks age) were fasted for one night, a pine bark extract mentioned in Example 1 or vitamin C was compulsorily administered via oral route, and blood was collected from tail vein from time to time to prepare plasma samples. FRAP value of the plasma sample was measured by a method of Benzie (Benzie, I. F. F. and Strain, J. J., Anal. Biochem., 1996, Volume 239, pages 70 to 76) and its changes with a lapse of time were traced as an index for antioxidant activity in blood. The plasma sample (10 μL) was added to 990 μL of FRAP reagent containing 20 mM of FeCl3 followed by being allowed to stand at 37° C. for 4 minutes, and changes in absorbance at 593 nm were measured. The same operation was conducted using a solution containing a predetermined concentration of […] sample and, from the changes in absorbance, a calibration curve for FRAP values was prepared.

On to `O=C1O[C@H]([C@@H](O)CO)C(O)=C1O` [vitamin C], for which the “FRAP value in blood” value was “an increase in the FRAP value was also observed”.

These data come from US20070099853A1, “Agent for improving physiological motor functions” (SUNTORY LIMITED, priority 2003, published 2007).
